Experimental data reported in US6054435A, “6-O-substituted macrolides having antibacterial activity” (priority 1999, dated 2000).
Values after ≈ are worked out from the molar mass of the structure shown.

How the values were obtained:
Experiment in all cases: in vitro antibacterial activity (MIC), agar dilution
Format in all cases: cell-based
Candida albicans CCH 442 = details: organism code TT; BHI agar, 35-37° C., 20 to 24 hours; unit assumed
Summary of the method: (§1)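 Antibacterial MIC determined by agar dilution in BHI agar with twelve successive concentrations; controls comprised compound-free plates and a same-class reference antibiotic. MIC: lowest concentration giving no growth, slight haze or sparsely isolated colonies.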

[1] = test system: Enterococcus faecium ATCC 8043; details: organism code II; BHI agar, 35-37° C., 20 to 24 hours; unit assumed
Summary of the method: as §1

Escherichia coli DC-2 = details: organism code SS; BHI agar, 35-37° C., 20 to 24 hours; unit assumed
Summary of the method: as §1

Escherichia coli JUHL = details: organism code QQ; BHI agar, 35-37° C., 20 to 24 hours; unit assumed
Summary of the method: as §1

Escherichia coli SS = details: organism code RR; BHI agar, 35-37° C., 20 to 24 hours; unit assumed
Summary of the method: as §1

[2] = test system: Haemophilis Influenzae DILL AMP R; details: organism code WW; BHI agar, 35-37° C., 20 to 24 hours; unit assumed
Summary of the method: as §1

[3] = test system: Micrococcus luteus ATCC 4698; details: organism code PP; BHI agar, 35-37° C., 20 to 24 hours; unit assumed
Summary of the method: (§2)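 Agar dilution on BHI agar with twelve successive compound dilutions; plates inoculated by Steers replicator with 1:100 culture dilutions (1:10 for slow growers such as Streptococcus). MIC is the lowest concentration giving no growth, slight haze or sparse colonies versus a drug-free control.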

[4] = test system: Micrococcus luteus ATCC 9341; details: organism code OO; BHI agar, 35-37° C., 20 to 24 hours; unit assumed
Summary of the method: as §2

[5] = test system: Mycobacterium smegmatis ATCC 114; details: organism code UU; BHI agar, 35-37° C., 20 to 24 hours; unit assumed
Summary of the method: as §1

[6] = test system: Nocardia Asteroides ATCC9970; details: organism code VV; BHI agar, 35-37° C., 20 to 24 hours; unit assumed
Summary of the method: as §1

[7] = test system: Staphylococcus aureus 1775; details: organism code GG; BHI agar, 35-37° C., 20 to 24 hours; unit assumed
Summary of the method: as §1

[8] = test system: Staphylococcus aureus A-5278; details: organism code CC; BHI agar, 35-37° C., 20 to 24 hours; unit assumed
Summary of the method: as §1

[9] = test system: Staphylococcus aureus A5177; details: organism code BB; BHI agar, 35-37° C., 20 to 24 hours; unit assumed
Summary of the method: as §1

[10] = test system: Staphylococcus aureus ATCC 6538P; details: organism code AA; BHI agar, 35-37° C., 20 to 24 hours; unit assumed
Summary of the method: as §1

[11] = test system: Staphylococcus aureus CMX 553; details: organism code FF; BHI agar, 35-37° C., 20 to 24 hours; unit assumed
Summary of the method: as §1

[12] = test system: Staphylococcus aureus CMX 642A; details: organism code DD; BHI agar, 35-37° C., 20 to 24 hours; unit assumed
Summary of the method: as §1

[13] = test system: Staphylococcus aureus NCTC10649M; details: organism code EE; BHI agar, 35-37° C., 20 to 24 hours; unit assumed
Summary of the method: as §1

[14] = test system: Staphylococcus epidermidis 3519; details: organism code HH; BHI agar, 35-37° C., 20 to 24 hours; unit assumed
Summary of the method: as §1

[15] = test system: Streptococcus Pneumonia 5649; details: organism code ZZA; BHI agar, 35-37° C., 20 to 24 hours; unit assumed
Summary of the method: as §1

[16] = test system: Streptococcus Pneumonia 5979; details: organism code ZZ; BHI agar, 35-37° C., 20 to 24 hours; unit assumed
Summary of the method: as §1

[17] = test system: Streptococcus Pneumonia ATCC6303; details: organism code XX; BHI agar, 35-37° C., 20 to 24 hours; unit assumed
Summary of the method: as §1

[18] = test system: Streptococcus Pneumonia GYR 1171; details: organism code YY; BHI agar, 35-37° C., 20 to 24 hours; unit assumed
Summary of the method: as §1

[19] = test system: Streptococcus agalactiae CMX 508; details: organism code KK; BHI agar, 35-37° C., 20 to 24 hours; unit assumed
Summary of the method: as §1

[20] = test system: Streptococcus bovis A-5169; details: organism code JJ; BHI agar, 35-37° C., 20 to 24 hours; unit assumed
Summary of the method: as §1

[21] = test system: Streptococcus pyogenes 930; details: organism code MM; BHI agar, 35-37° C., 20 to 24 hours; unit assumed
Summary of the method: as §1

[22] = test system: Streptococcus pyogenes EES61; details: organism code LL; BHI agar, 35-37° C., 20 to 24 hours; unit assumed
Summary of the method: as §1

[23] = test system: Streptococcus pyogenes PIU 2548; details: organism code NN; BHI agar, 35-37° C., 20 to 24 hours; unit assumed
Summary of the method: as §1

| Structure (SMILES) | MIC (Candida albicans CCH 442) | MIC [1] | MIC (Escherichia coli DC-2) | MIC (Escherichia coli JUHL) | MIC (Escherichia coli SS) | MIC [2] | MIC [3] | MIC [4] | MIC [5] | MIC [6] | MIC [7] | MIC [8] | MIC [9] | MIC [10] | MIC [11] | MIC [12] | MIC [13] | MIC [14] | MIC [15] | MIC [16] | further results |
| --- | --- | --- | --- | --- | --- | --- | --- | --- | --- | --- | --- | --- | --- | --- | --- | --- | --- | --- | --- | --- | --- |
| CC[C@H]1OC(=O)[C@H](C)C(=O)[C@H](C)[C@@H](O[C@@H]2O[C@H](C)C[C@H](N(C)C)[C@H]2O)[C@](C)(OC/C=C/c2ccc(-c3ncccn3)s2)C[C@@H](C)C(=O)[C@H](C)[C@H]2NC(=O)O[C@@]21C [Example 61] | > 100 µg/mL | 0.05 µg/mL (≈ 0.0626 µM) | 50 µg/mL (≈ 62.6 µM) | 25 µg/mL (≈ 31.3 µM) | 0.39 µg/mL (≈ 0.488 µM) | 8 µg/mL (≈ 10 µM) | 0.05 µg/mL (≈ 0.0626 µM) | 0.01 µg/mL (≈ 0.0125 µM) | 0.39 µg/mL (≈ 0.488 µM) | 0.05 µg/mL (≈ 0.0626 µM) | > 100 µg/mL | > 100 µg/mL | 0.1 µg/mL (≈ 0.125 µM) | 0.05 µg/mL (≈ 0.0626 µM) | 0.1 µg/mL (≈ 0.125 µM) | 0.1 µg/mL (≈ 0.125 µM) | 0.1 µg/mL (≈ 0.125 µM) | 0.1 µg/mL (≈ 0.125 µM) | 0.25 µg/mL (≈ 0.313 µM) | 8 µg/mL (≈ 10 µM) | MIC [17]: 0.015 µg/mL (≈ 0.0188 µM); MIC [18]: 0.015 µg/mL (≈ 0.0188 µM); MIC [19]: 0.01 µg/mL (≈ 0.0125 µM); MIC [20]: 0.01 µg/mL (≈ 0.0125 µM); MIC [21]: 50 µg/mL (≈ 62.6 µM); MIC [22]: 0.01 µg/mL (≈ 0.0125 µM); MIC [23]: 0.1 µg/mL (≈ 0.125 µM) |
| CC[C@H]1OC(=O)[C@H](C)C(=O)[C@H](C)[C@@H](O[C@@H]2O[C@H](C)C[C@H](N(C)C)[C@H]2O)[C@](C)(OC/C=C/c2ccc(-c3cccnc3)s2)C[C@@H](C)C(=O)[C@H](C)[C@H]2NC(=O)O[C@@]21C [Example 68] | > 100 µg/mL | 0.05 µg/mL (≈ 0.0627 µM) | > 100 µg/mL | 100 µg/mL (≈ 125 µM) | 0.39 µg/mL (≈ 0.489 µM) | 2 µg/mL (≈ 2.51 µM) | 0.39 µg/mL (≈ 0.489 µM) | 0.02 µg/mL (≈ 0.0251 µM) | 3.1 µg/mL (≈ 3.88 µM) | 0.05 µg/mL (≈ 0.0627 µM) | > 100 µg/mL | > 100 µg/mL | 6.2 µg/mL (≈ 7.77 µM) | 0.2 µg/mL (≈ 0.251 µM) | 0.39 µg/mL (≈ 0.489 µM) | 0.39 µg/mL (≈ 0.489 µM) | 0.39 µg/mL (≈ 0.489 µM) | 0.39 µg/mL (≈ 0.489 µM) | 0.125 µg/mL (≈ 0.157 µM) | 0.125 µg/mL (≈ 0.157 µM) | MIC [17]: ≤ 0.004 µg/mL; MIC [18]: ≤ 0.004 µg/mL; MIC [19]: 0.02 µg/mL (≈ 0.0251 µM); MIC [20]: 0.02 µg/mL (≈ 0.0251 µM); MIC [21]: > 100 µg/mL; MIC [22]: 0.05 µg/mL (≈ 0.0627 µM); MIC [23]: 6.2 µg/mL (≈ 7.77 µM) |
| CC[C@H]1OC(=O)[C@H](C)C(=O)[C@H](C)[C@@H](O[C@@H]2O[C@H](C)C[C@H](N(C)C)[C@H]2O)[C@](C)(OCC#Cc2ccc(-c3nccn3C)s2)C[C@@H](C)C(=O)[C@H](C)[C@H]2NC(=O)O[C@@]21C [Example 32] | > 100 µg/mL | 0.02 µg/mL (≈ 0.025 µM) | > 100 µg/mL | 50 µg/mL (≈ 62.6 µM) | 0.2 µg/mL (≈ 0.25 µM) | 2 µg/mL (≈ 2.5 µM) | 0.05 µg/mL (≈ 0.0626 µM) | 0.01 µg/mL (≈ 0.0125 µM) | 1.56 µg/mL (≈ 1.95 µM) | 0.01 µg/mL (≈ 0.0125 µM) | > 100 µg/mL | > 100 µg/mL | 0.05 µg/mL (≈ 0.0626 µM) | 0.05 µg/mL (≈ 0.0626 µM) | 0.05 µg/mL (≈ 0.0626 µM) | 0.05 µg/mL (≈ 0.0626 µM) | 0.1 µg/mL (≈ 0.125 µM) | 0.1 µg/mL (≈ 0.125 µM) | 0.25 µg/mL (≈ 0.313 µM) | 0.25 µg/mL (≈ 0.313 µM) | MIC [17]: 0.03 µg/mL (≈ 0.0375 µM); MIC [18]: 0.03 µg/mL (≈ 0.0375 µM); MIC [19]: 0.01 µg/mL (≈ 0.0125 µM); MIC [20]: ≤ 0.005 µg/mL; MIC [21]: 12.5 µg/mL (≈ 15.6 µM); MIC [22]: 0.01 µg/mL (≈ 0.0125 µM); MIC [23]: 0.39 µg/mL (≈ 0.488 µM) |
| CC[C@H]1OC(=O)[C@H](C)C(=O)[C@H](C)[C@@H](O[C@@H]2O[C@H](C)C[C@H](N(C)C)[C@H]2O)[C@](C)(OC/C=C/c2cncc(Br)c2)C[C@@H](C)C(=O)[C@H](C)[C@H]2NC(=O)O[C@@]21C [Example 40] | > 100 µg/mL | 0.05 µg/mL (≈ 0.0629 µM) | 50 µg/mL (≈ 62.9 µM) | 100 µg/mL (≈ 126 µM) | 0.39 µg/mL (≈ 0.491 µM) | 4 µg/mL (≈ 5.03 µM) | 0.2 µg/mL (≈ 0.252 µM) | 0.02 µg/mL (≈ 0.0252 µM) | 0.39 µg/mL (≈ 0.491 µM) | 0.1 µg/mL (≈ 0.126 µM) | > 100 µg/mL | > 100 µg/mL | 0.2 µg/mL (≈ 0.252 µM) | 0.1 µg/mL (≈ 0.126 µM) | 0.2 µg/mL (≈ 0.252 µM) | 0.2 µg/mL (≈ 0.252 µM) | 0.2 µg/mL (≈ 0.252 µM) | 0.2 µg/mL (≈ 0.252 µM) | 0.25 µg/mL (≈ 0.315 µM) | > 128 µg/mL | MIC [17]: 0.015 µg/mL (≈ 0.0189 µM); MIC [18]: 0.015 µg/mL (≈ 0.0189 µM); MIC [19]: 0.02 µg/mL (≈ 0.0252 µM); MIC [20]: 0.02 µg/mL (≈ 0.0252 µM); MIC [21]: 50 µg/mL (≈ 62.9 µM); MIC [22]: 0.02 µg/mL (≈ 0.0252 µM); MIC [23]: 0.1 µg/mL (≈ 0.126 µM) |
| CC[C@H]1OC(=O)[C@H](C)C(=O)[C@H](C)[C@@H](O[C@@H]2O[C@H](C)C[C@H](N(C)C)[C@H]2O)[C@](C)(OC/C=C/c2ccc3ncc(-c4ccco4)cc3c2)C[C@@H](C)C(=O)[C@H](C)[C@H]2NC(=O)O[C@@]21C [Example 39] | > 100 µg/mL | 0.1 µg/mL (≈ 0.12 µM) | > 100 µg/mL | > 100 µg/mL | 0.78 µg/mL (≈ 0.937 µM) | 4 µg/mL (≈ 4.81 µM) | 0.2 µg/mL (≈ 0.24 µM) | 0.02 µg/mL (≈ 0.024 µM) | 0.39 µg/mL (≈ 0.469 µM) | 0.1 µg/mL (≈ 0.12 µM) | > 100 µg/mL | > 100 µg/mL | 0.2 µg/mL (≈ 0.24 µM) | 0.2 µg/mL (≈ 0.24 µM) | 0.2 µg/mL (≈ 0.24 µM) | 0.2 µg/mL (≈ 0.24 µM) | 0.2 µg/mL (≈ 0.24 µM) | 0.2 µg/mL (≈ 0.24 µM) | 0.25 µg/mL (≈ 0.3 µM) | 2 µg/mL (≈ 2.4 µM) | MIC [17]: 0.06 µg/mL (≈ 0.0721 µM); MIC [18]: 0.03 µg/mL (≈ 0.0361 µM); MIC [19]: 0.01 µg/mL (≈ 0.012 µM); MIC [20]: 0.01 µg/mL (≈ 0.012 µM); MIC [21]: 6.2 µg/mL (≈ 7.45 µM); MIC [22]: 0.01 µg/mL (≈ 0.012 µM); MIC [23]: 0.2 µg/mL (≈ 0.24 µM) |
